{"source": "patent US8884072B2", "about": "“Mitigation of fouling in hydroformylation processes by water addition” (Dow Technology Investments LLC, priority 2010, dated 2014)", "format_in_all_cases": "physicochemical", "key": {"[1]": {"experiment": "Solubility properties of HPPA-Na2 under simulated hydroformylation reaction conditions with incremental water addition (Example 7)", "procedure": "A small portion (67 mg) of the disodium salt of hydroxypentylphosphonic acid (HPPA-Na2) was charged to a 3 oz glass pressure vessel. A 2:1 mixture of valeraldehyde and valeraldehyde trimers (4.07 g) was added, and stirring was initiated at room temperature. Butene-1 (1.22 g) was added via syringe, and the tube was placed in an oil bath at 70° C. Additional water was slowly added to determine solubility properties under simulated hydroformylation reaction conditions. Total water content is based on the initial water level (determined by K—F titration) plus the incremental water additions made throughout."}, "[2]": {"experiment": "Observation of HPPA-Na2 in anhydrous valeraldehyde at room temperature (Comparative Example 1)", "conditions": "15 mg in anhydrous valeraldehyde (3.52 g; 0.0961 wt % water), two hours", "procedure": "One small portion (15 mg) of a disodium salt of hydroxypentylphosphonic acid (HPPA-Na2) was charged to a 20 ml glass vial under nitrogen. Anhydrous valeraldehyde (3.52 g; 0.0961 wt % water) was added and the resulting mixture was stirred at room temperature."}, "[3]": {"experiment": "HPPA-Na2 solubility in valeraldehyde/valeraldehyde trimers/1-butene at 70° C., filtrate quantified by ion chromatography (Examples 4-6)", "conditions": "two hours", "procedure": "(§1) Valeraldehyde was freshly distilled under reduced pressure prior to use. Valeraldehyde trimers were obtained by vacuum distillation of a commercial catalyst recycle sample. The distillate was determined to be a mixture of 75% valeraldehyde trimers and 25% valeraldehyde dimers by gas chromatography and mass spectrometry (GC/MS). A portion of both valeraldehyde and valeraldehyde trimers was saturated with water, and then blended with freshly distilled material to provide solutions of varying water levels. Unless otherwise noted, all water concentrations were determined by Karl-Fischer titration.\nOne small portion (130-160 mg) of the disodium salt of hydroxypentylphosphonic acid (HPPA-Na2) was charged to each of three, 3 oz glass pressure vessels. Valeraldehyde, valeraldehyde trimers and 1-butene were then added via syringe and the resulting mixtures (which contained various levels of water) were stirred vigorously at 70° C. for two hours. Samples were then removed at temperature, quickly filtered, and the filtrate was twice extracted with water to facilitate the quantization of HPPA-Na2 solubility by ion chromatography.\nThe solutions of Examples 4-6 were intended to model actual hydroformylation solution conditions."}, "[4]": {"experiment": "Observation of HPPA-Na2 in valeraldehyde/valeraldehyde trimers (2:1) and 1-butene, stirred at room temperature for two hours (Examples 1-3)", "procedure": "as §1\nOne small portion (70 mg) of a disodium salt of hydroxypentylphosphonic acid (HPPA-Na2) was charged to each of three, 3 oz glass pressure vessels. Valeraldehyde, valeraldehyde trimers (2:1 weight ratio) and 1-butene were then added via syringe and stirred at room temperature for two hours."}}}
{"molecule": "CCCCC(O)P(=O)([O-])[O-].[Na+].[Na+]", "note": "(centres unmarked) [HPPA-Na2, disodium salt of hydroxypentylphosphonic acid]", "values": [{"measurement": "Result", "setting": "[1]; 22 ° C., water content 0.86 %, additive 1.22 g 1-butene", "value": "No change"}, {"measurement": "Result", "setting": "[1]; 22 ° C., water content 0.86 %, additives None", "value": "Opaque with sticky, gelatinous"}, {"measurement": "Result", "setting": "[1]; 70 ° C., water content 0.86 %, additives None", "value": "No change"}, {"measurement": "Result", "setting": "[1]; 70 ° C., water content 3.19 %, additive 0.1 mL water", "value": "No change"}, {"measurement": "Result", "setting": "[1]; 70 ° C., water content 5.54 %, additive 0.1 mL water", "value": "Less turbid"}, {"measurement": "Result", "setting": "[1]; 70 ° C., water content 7.72 %, additive 0.1 mL water", "value": "Much less turbid; solids gone"}, {"measurement": "Result", "setting": "[1]; 70 ° C., water content 9.8 %, additive 0.1 mL water", "value": "Clear solution"}, {"measurement": "Appearance of the solids after stirring", "setting": "[2]", "value": "the solids remained free-flowing, suspended particulates"}, {"measurement": "HPPA-Na2 solubility", "setting": "[3]; Ex. 4, Val. 52.0 wt %, Val Trimer 26.0 wt %, 1-butene 21.2 wt %, Water 0.103 wt %", "value": 4.8, "unit": "ppm"}, {"measurement": "Description", "setting": "[3]; Ex. 4, Water 0.103 wt %", "value": "Hazy watery"}, {"measurement": "HPPA-Na2 solubility", "setting": "[3]; Ex. 5, Val. 52.1 wt %, Val Trimer 26.0 wt %, 1-butene 21.1 wt %, Water 0.380 wt %", "value": 15.5, "unit": "ppm"}, {"measurement": "Description", "setting": "[3]; Ex. 5, Water 0.380 wt %", "value": "Very hazy"}, {"measurement": "HPPA-Na2 solubility", "setting": "[3]; Ex. 6, Val. 52.7 wt %, Val Trimer 26.4 wt %, 1-butene 20.8 wt %, Water 0.860 wt %", "value": 21.3, "unit": "ppm"}, {"measurement": "Description", "setting": "[3]; Ex. 6, Water 0.860 wt %", "value": "Solid gel"}, {"measurement": "Observations", "setting": "[4]; Example 1, val/val trimer 8.42 g, 1-butene 2.41 g, Water 0.29 %", "value": "Voluminous, gelatinous"}, {"measurement": "Observations", "setting": "[4]; Example 2, val/val trimer 8.94 g, 1-butene 2.26 g, Water 0.87 %", "value": "Mixture of gel and sticky"}, {"measurement": "Observations", "setting": "[4]; Example 3, val/val trimer 8.97 g, 1-butene 2.22 g, Water 1.47 %", "value": "Sticky material on glass"}]}
